What all share (test): growth of human tumour cells (NCI), 48 h
Assay [1] deals with CCRF-CEM leukemia.
In assay [2] the test system is COLO 205 colon.
Assay [3] relates to HCT-116 colon.
For assay [4], the system named is HT29 colon.
For assay [5], the system named is NCI-H226 lung.
The subject of assay [6] is NCI-H522 lung.
Assay [7] relates to SF-539 CNS.
Assay [8] relates to SK-MEL-5 melanoma.
For assay [9], the system named is SR leukemia.
Assay [10] relates to MALME-3M melanoma.

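Step 1: Grow cells in 96-well plates. Step 2: Expose to compound for 48 hours at 5 concentrations. Step 3: Interpolate endpoints linearly; if unreached, use highest concentration. Abbreviation: GI50, concentration required for 50% inhibition of growth. TGI denotes the concentration required for complete inhibition of growth.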

Results on 13 compounds are retold here after PubChem BioAssay (NCI).

With `O=[N+]([O-])c1cccc([I+]c2ccccc2)c1`, the GI50 in assay [1] is 5.27 µM; in [2], 10.1 µM; in assay [3] it was 7.05 µM; in assay [4], 11.9 µM; in assay [5], 7.12 µM; in assay [6] it was 11.3 µM. The GI50 in assay [7] is 10.8 µM; in [8] it was 2.27 µM; in assay [9], 3.16 µM. The TGI in assay [1] was found to be 90.7 µM; in [2], 33.6 µM; in assay [3], 24.2 µM; in [4], 31.2 µM; in assay [5], 21.3 µM; in assay [6] it was 23.5 µM. Besides, the TGI stood at 24.3 µM in [7], 10.8 µM in [8] and 25.9 µM in assay [9].
Regarding `O=c1[nH]c(-c2ccc([N+](=O)[O-])cc2)nc2ccc(Cl)cc12`, the TGI in assay [2], in assay [3], in assay [4], in assay [10], in assay [7] and in assay [8] was more than 100 µM each time.
As for `O=C(CC(=O)N1N=C(c2ccccc2)C(N=Nc2ccccc2Cl)C1=O)Nc1ccccc1Cl` (stereo unspecified), the TGI in [2] was more than 100 µM; in assay [3], more than 100 µM; in assay [4], 44.6 µM; in [5], more than 100 µM; in assay [6] it was more than 100 µM; in assay [7], more than 100 µM. For the same compound, the figures for the TGI in [8] and in assay [9] were 52.5 µM and 54.5 µM, respectively.
In the case of `Cc1cc(N(CCC#N)CCC#N)ccc1CC1N=C(c2ccccc2)OC1=O` (stereo unspecified), the TGI in [1], in assay [2], in assay [3], in assay [4], in assay [10] and in assay [5] was more than 100 µM each time. Further, the TGI in [6], in assay [7] and in [8] was more than 100 µM throughout.
On to `CC(C)=Cc1cc(C(=O)NCCNC(=O)c2cc(C=C(C)C)nc(NC#N)n2)nc(NC#N)n1`, for which the TGI in assay [1], in assay [2], in assay [3], in [4], in assay [10] and in assay [5] was more than 100 µM throughout. The TGI in assay [6], in assay [7] and in [8] was more than 100 µM each time.
Turning to `ClCc1ccc(-c2ccc(Cn3cnc4c(Cl)ncnc43)cc2)cc1`, the GI50 is 2.58 µM in assay [1]; 1.82 µM in [2]; 1.48 µM in assay [3]; 1.81 µM in [5]; 4.01 µM in [6]; 1.52 µM in [7]. Besides, the GI50 in assay [8] is 2.49 µM; in [9] it was 2.51 µM. The TGI is more than 100 µM in assay [1]; 4.27 µM in [2]; 2.79 µM in [3]; 3.89 µM in assay [5]; more than 100 µM in assay [6]; 3.14 µM in [7]. Further, the TGI in assay [8] was 7.17 µM; in assay [9], more than 100 µM.
As for `C1=CC(=NN=P(c2ccccc2)(c2ccccc2)c2ccccc2)C=C1`, the TGI in assay [1], in assay [2], in assay [4], in [10], in [6] and in assay [8] was more than 100 µM each time.
With `COc1cc(/C=C2\CC3C4CCC5=CC(=O)CC[C@]5(C)C4CC[C@]3(C)C2=O)ccc1OCCN1CCCCC1` (stereo partly specified), the GI50 in assay [2] is 5.34 µM; in assay [3], 2.11 µM; in assay [4], 3.37 µM; in assay [5], 5.24 µM; in assay [6], 8.95 µM; in assay [8], 1.51 µM. For the same compound, the TGI in assay [2] is 35.2 µM; in [3], 5.75 µM; in [4], 64.8 µM; in [5], 21.1 µM; in [6], more than 100 µM; in assay [8] it was 3.09 µM.
For the compound `COc1cc([C@@H]2c3cc4c(cc3[C@@H](NC(=O)c3ccc(OC(C)=O)cc3)C3COC(=O)[C@@H]32)OCO4)cc(OC)c1O` (stereo partly specified), the TGI in assay [1] is more than 100 µM; in [2] it was 35.7 µM; in assay [3], 15.3 µM; in assay [4] it was 29.5 µM; in assay [10], 11.1 µM; in [5] it was 4.46 µM. Also, the TGI was found to be 4.37 µM in assay [6], 3.14 µM in [7] and 13.2 µM in assay [8].
As for `O=C(CC1(O)C(=O)Nc2ccc([N+](=O)[O-])cc21)c1ccc(Br)cc1` (stereo unspecified), the TGI in assay [1], in assay [2], in assay [3], in assay [4], in assay [10] and in assay [5] was more than 100 µM each time. For the same compound, the TGI in [6] was 47.9 µM; in assay [7], more than 100 µM.
For `C/C(CC(=O)Nc1ccc([N+](=O)[O-])cc1)=N\Nc1ccc([N+](=O)[O-])cc1[N+](=O)[O-]`, the TGI in assay [1], in assay [2], in assay [3], in assay [4], in assay [10] and in assay [5] was more than 100 µM each time. Also, the TGI in [6] is 85.5 µM; in assay [7] it was more than 100 µM; in [8], more than 100 µM.
Turning to `CN(CCCCN)c1ccc2c(=O)[nH][nH]c(=O)c2c1`, the TGI in assay [1], in assay [2], in [3], in assay [4], in assay [10] and in assay [5] was more than 100 µM in each case. Also, the TGI in assay [6] and in assay [7] was more than 100 µM in each case.
Turning to `Cc1nc2cc(Nc3nc(Nc4ccc(F)cc4)nc(N4CCCC4)n3)ccc2n1Cc1ccccc1`, the GI50 in [1] is 2.38 µM; in assay [2], 1.79 µM; in assay [3] it was 1.66 µM; in [4] it was 1.93 µM; in assay [10], 1.61 µM; in [5], 1.9 µM. Further, the GI50 in [6] was 1.69 µM; in assay [7] it was 1.79 µM; in assay [8] it was 1.66 µM. Besides, the TGI came out at 5.6 µM in [1]; 3.48 µM in assay [2]; 3.09 µM in assay [3]; 3.89 µM in assay [4]; 3.17 µM in assay [10]; 4.29 µM in assay [5]. The TGI in [6] was determined as 4.07 µM; in assay [7], 3.32 µM; in assay [8], 3.09 µM.
